Among the data in patent US20080234262A1 (Wyeth, priority 2007, published 2008) are IC50 values, retold here.

Like-named read-outs stand apart in the source and are kept apart here. Some results are limits rather than exact numbers.

One assay addresses PI3K (Homo sapiens, UniProt P42336). Nature of the assay: Fluorescence polarization assay for PI3K.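 Also: PI3K kinase reaction on PIP2 with ATP, 30-60 min, product sensed by GST-GRP with red probe in fluorescence polarization (mP), controls without enzyme and at zero time.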 In kind it is biochemical. (Polarisation of emitted light reports the rotation of a fluorescent probe.)
The subject of the next assay is prostate line LNCap. Nature of the assay: In vitro cell culture growth assay (MTS), LNCap. In kind it is cell-based, human. As to conditions: LNCap cells, three days after drug treatment.
A further assay relates to breast line MDA468. Nature of the assay: In vitro cell culture growth assay (MTS), MDA468. In kind it is cell-based, human. As to conditions: MDA468 cells, three days after drug treatment. The essentials: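 MDA468 or LNCap cells received inhibitors one day after plating and were grown for three days. Viable cell density read by MTS conversion, absorbance 490 nm, expressed as percent of control growth versus vehicle-treated cells on the same plate.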

Sequence of PI3K (P42336 whole entry): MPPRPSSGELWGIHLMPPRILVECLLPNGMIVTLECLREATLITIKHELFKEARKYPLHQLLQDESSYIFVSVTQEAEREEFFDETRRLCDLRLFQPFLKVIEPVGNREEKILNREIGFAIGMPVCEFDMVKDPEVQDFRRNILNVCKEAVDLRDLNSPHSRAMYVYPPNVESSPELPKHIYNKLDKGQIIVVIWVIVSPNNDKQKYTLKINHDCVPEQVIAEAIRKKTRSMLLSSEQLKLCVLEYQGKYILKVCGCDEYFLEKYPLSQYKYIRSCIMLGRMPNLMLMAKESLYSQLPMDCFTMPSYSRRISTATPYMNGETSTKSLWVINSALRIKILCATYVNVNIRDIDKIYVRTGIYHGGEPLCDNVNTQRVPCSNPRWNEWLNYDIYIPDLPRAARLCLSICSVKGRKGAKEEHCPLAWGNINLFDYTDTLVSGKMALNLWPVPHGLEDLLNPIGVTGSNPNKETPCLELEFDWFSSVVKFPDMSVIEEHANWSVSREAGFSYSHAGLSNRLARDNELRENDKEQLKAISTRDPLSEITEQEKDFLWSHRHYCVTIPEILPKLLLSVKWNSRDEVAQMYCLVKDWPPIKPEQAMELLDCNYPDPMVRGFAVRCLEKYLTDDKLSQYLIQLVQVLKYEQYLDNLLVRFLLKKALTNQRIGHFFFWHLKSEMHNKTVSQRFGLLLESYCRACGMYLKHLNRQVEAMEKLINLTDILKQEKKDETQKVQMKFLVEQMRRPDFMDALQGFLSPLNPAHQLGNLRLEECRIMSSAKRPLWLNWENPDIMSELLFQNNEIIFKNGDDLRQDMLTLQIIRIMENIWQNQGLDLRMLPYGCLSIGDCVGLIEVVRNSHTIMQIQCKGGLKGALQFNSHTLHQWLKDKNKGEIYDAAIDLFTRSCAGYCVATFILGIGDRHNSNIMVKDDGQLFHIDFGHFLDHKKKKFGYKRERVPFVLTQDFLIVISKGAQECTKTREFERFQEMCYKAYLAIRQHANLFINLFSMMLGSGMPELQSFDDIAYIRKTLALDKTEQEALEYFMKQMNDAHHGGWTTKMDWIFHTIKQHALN
Sequence of PI3K (P27986 whole entry partner): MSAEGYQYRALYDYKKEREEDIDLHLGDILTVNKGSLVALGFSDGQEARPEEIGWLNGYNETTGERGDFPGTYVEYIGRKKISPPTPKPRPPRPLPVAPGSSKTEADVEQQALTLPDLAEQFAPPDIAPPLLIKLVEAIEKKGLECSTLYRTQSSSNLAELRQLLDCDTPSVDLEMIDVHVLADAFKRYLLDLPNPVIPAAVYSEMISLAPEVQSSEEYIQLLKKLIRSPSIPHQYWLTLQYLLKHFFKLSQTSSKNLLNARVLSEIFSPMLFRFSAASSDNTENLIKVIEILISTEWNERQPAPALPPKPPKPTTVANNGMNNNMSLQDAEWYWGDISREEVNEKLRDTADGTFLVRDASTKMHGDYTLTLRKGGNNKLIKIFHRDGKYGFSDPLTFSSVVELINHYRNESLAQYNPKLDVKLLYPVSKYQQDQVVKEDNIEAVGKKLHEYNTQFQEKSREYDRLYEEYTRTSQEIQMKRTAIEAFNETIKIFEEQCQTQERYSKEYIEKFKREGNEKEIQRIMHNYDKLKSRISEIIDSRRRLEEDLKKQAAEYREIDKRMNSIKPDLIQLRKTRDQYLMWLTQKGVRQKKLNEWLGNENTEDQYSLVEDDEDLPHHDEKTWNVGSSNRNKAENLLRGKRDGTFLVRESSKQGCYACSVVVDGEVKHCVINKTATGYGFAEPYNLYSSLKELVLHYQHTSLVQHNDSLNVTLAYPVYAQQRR

The IC50 is the concentration that gives 50% inhibition. With `CCOC(=O)N1CCC(n2ncc3c(N4CCOCC4)nc(-c4ccc(NC(=O)Nc5ccccn5)cc4)nc32)CC1` [Compound 815, ethyl 4-(4-morpholin-4-yl-6-{4-[(pyridin-2-ylcarbamoyl)amino]phenyl}-1H-pyrazolo[3,4-d]pyrimidin-1-yl)piperidine-1-carboxylate], the IC50 was 3.81 µM on PI3K (PI3Kα; read-out: PI3Kα IC50); 1.5 µM in the assay with prostate line LNCap (Homo sapiens, LNCaP, 72 h); 5 µM in the assay with breast line MDA468 (Homo sapiens, 72 h).

Turning to `CCOC(=O)N1CCC(n2ncc3c(N4CCOCC4)nc(-c4ccc(NC(=O)NCCF)cc4)nc32)CC1` [Compound 819, ethyl 4-[6-(4-{[(2-fluoroethyl)carbamoyl]amino}phenyl)-4-morpholin-4-yl-1H-pyrazolo[3,4-d]pyrimidin-1-yl]piperidine-1-carboxylate], the IC50 at PI3K (PI3Kα; read-out: PI3Kα IC50) was 0.794 µM; in the assay with prostate line LNCap (Homo sapiens, LNCaP, 72 h), below 0.027 µM; with breast line MDA468 (Homo sapiens, 72 h) it was 0.07 µM.

In the case of `NCCNC(=O)Nc1ccc(-c2nc(N3CCOCC3)c3cnn(C4CCN(Cc5ccccc5)CC4)c3n2)cc1` [Compound 512, 1-(2-aminoethyl)-3-{4-[1-(1-benzylpiperidin-4-yl)-4-morpholin-4-yl-1H-pyrazolo[3,4-d]pyrimidin-6-yl]phenyl}urea], the IC50 was 0.014 µM at PI3K (PI3Kα; read-out: PI3Kα IC50); 2 µM in the assay on prostate line LNCap (Homo sapiens, LNCaP, 72 h); 2.7 µM in the assay on breast line MDA468 (Homo sapiens, 72 h).

With `CCONC(=O)Nc1ccc(-c2nc(N3CCOCC3)c3cnn(C4CCN(Cc5ccccc5)CC4)c3n2)cc1` [Example 287, 1-{4-[1-(1-benzylpiperidin-4-yl)-4-morpholin-4-yl-1H-pyrazolo[3,4-d]pyrimidin-6-yl]phenyl}-3-ethoxyurea], the IC50 at PI3K (PI3Kα; read-out: PI3Kα IC50) was 0.273 µM; in the assay with prostate line LNCap (Homo sapiens, LNCaP, 72 h), 0.68 µM; in the assay with breast line MDA468 (Homo sapiens, 72 h) it was 0.2 µM.

As for `COC(=O)Nc1ccc(-c2nc(N3CCOCC3)c3cnn(C4CCNCC4)c3n2)cc1` [Compound 459, methyl [4-(4-morpholin-4-yl-1-piperidin-4-yl-1H-pyrazolo[3,4-d]pyrimidin-6-yl)phenyl]carbamate], the IC50 on PI3K (PI3Kα; read-out: PI3Kα IC50) is 1.07 µM; in the assay on prostate line LNCap (Homo sapiens, LNCaP, 72 h), 1.7 µM; with breast line MDA468 (Homo sapiens, 72 h), 3 µM.

Take `Cc1ccc(C(=O)N2CCC(n3ncc4c(N5CCOCC5)nc(-c5ccc6[nH]ccc6c5)nc43)CC2)cn1` [Example 202, 6-(1H-indol-5-yl)-1-{1-[(6-methylpyridin-3-yl)carbonyl]piperidin-4-yl}-4-morpholin-4-yl-1H-pyrazolo[3,4-d]pyrimidine]: the IC50 was 2.1 µM at PI3K (PI3Kα; read-out: PI3Kα IC50); 0.4 µM in the assay on prostate line LNCap (Homo sapiens, LNCaP, 72 h); 2 µM with breast line MDA468 (Homo sapiens, 72 h).

For `CCOC(=O)N1CCC(n2ncc3c(N4CCOCC4)nc(-c4ccc(NC(=O)Nc5ccncc5)cc4)nc32)CC1` [Compound 817, ethyl 4-(4-morpholin-4-yl-6-{4-[(pyridin-4-ylcarbamoyl)amino]phenyl}-1H-pyrazolo[3,4-d]pyrimidin-1-yl)piperidine-1-carboxylate], the 50% inhibitory concentration (IC50) at PI3K (PI3Kα; read-out: PI3Kα IC50) was 0.04 µM; with prostate line LNCap (Homo sapiens, LNCaP, 72 h), below 0.027 µM; with breast line MDA468 (Homo sapiens, 72 h), below 0.027 µM.

As to `CNC(=O)Nc1ccc(-c2nc(N3CCOCC3)c3cnn(C4CCN(Cc5cccc(F)c5)CC4)c3n2)cc1` [Compound 428, 1-(4-{1-[1-(3-fluorobenzyl)piperidin-4-yl]-4-morpholin-4-yl-1H-pyrazolo[3,4-d]pyrimidin-6-yl}phenyl)-3-methylurea], the IC50 at PI3K (PI3Kα; read-out: PI3Kα IC50) turned out to be 0.03 µM; in the assay on prostate line LNCap (Homo sapiens, LNCaP, 72 h) it was 0.027 µM; with breast line MDA468 (Homo sapiens, 72 h), 0.2 µM.

Regarding `O=C(Oc1ccccc1)N1CCC(n2ncc3c(N4CCOCC4)nc(-c4ccc5[nH]ccc5c4)nc32)CC1` [Compound 493, phenyl 4-[6-(1H-indol-5-yl)-4-morpholin-4-yl-1H-pyrazolo[3,4-d]pyrimidin-1-yl]piperidine-1-carboxylate], the IC50 stood at 0.535 µM on PI3K (read-out: PI3Kα IC50; PI3Kα), 1.3 µM in the assay with prostate line LNCap and 4.3 µM in the assay on breast line MDA468.

In the case of `CCn1ncc2c(N3CCOCC3)nc(-c3cccc(O)c3)nc21` [Compound 97], the IC50 on PI3K (PI3Kα; read-out: PI3Kα IC50) turned out to be 0.018 µM; with prostate line LNCap (Homo sapiens, LNCaP, 72 h), 0.31 µM; in the assay with breast line MDA468 (Homo sapiens, 72 h) it was 1.3 µM.

For the molecule `CNC(=O)Nc1ccc(-c2nc(N3CCOCC3)c3cnn(C4CCN(C(=O)c5ccc(F)cc5)CC4)c3n2)cc1` [Example 361, 1-(4-{1-[1-(4-fluorobenzoyl)piperidin-4-yl]-4-morpholin-4-yl-1H-pyrazolo[3,4-d]pyrimidin-6-yl}phenyl)-3-methylurea], the IC50 on PI3K (PI3Kα; read-out: PI3Kα IC50) was found to be 0.108 µM; with prostate line LNCap (Homo sapiens, LNCaP, 72 h) it was 0.027 µM; with breast line MDA468 (Homo sapiens, 72 h) it was 0.1 µM.

Turning to `c1ccc(CN2CCC(n3ncc4c(N5CCOCC5)nc(-c5ccc6cc[nH]c6c5)nc43)CC2)cc1` [Compound 49], the IC50 on PI3K (PI3Kα; read-out: PI3Kα IC50) came out at 1.27 µM; with prostate line LNCap (Homo sapiens, LNCaP, 72 h), 2.1 µM; in the assay on breast line MDA468 (Homo sapiens, 72 h) it was 5.8 µM.

In the case of `CNC(=O)Nc1ccc(-c2nc(N3CCOCC3)c3cnn(C4CCN(Cc5ccc(Br)nc5)CC4)c3n2)cc1` [Compound 634, 1-[4-(1-{1-[(6-bromopyridin-3-yl)methyl]piperidin-4-yl}-4-morpholin-4-yl-1H-pyrazolo[3,4-d]pyrimidin-6-yl)phenyl]-3-methylurea], the values for the IC50 on PI3K (PI3Kα; read-out: PI3Kα IC50), in the assay on prostate line LNCap and in the assay with breast line MDA468 were 0.03 µM, 0.027 µM and 0.08 µM, respectively.

As for `CNC(=O)Nc1ccc(-c2nc(N3CCOCC3)c3cnn(C4CCOCC4)c3n2)cc1` [Example 403, 1-methyl-3-{4-[4-morpholin-4-yl-1-(tetrahydro-2H-pyran-4-yl)-1H-pyrazolo[3,4-d]pyrimidin-6-yl]phenyl}urea], the IC50 came to 0.045 µM on PI3K (PI3Kα; read-out: PI3Kα IC50); 0.103 µM in the assay on prostate line LNCap (Homo sapiens, LNCaP, 72 h); 0.4 µM with breast line MDA468 (Homo sapiens, 72 h).

`CN(C)CCNC(=O)c1cccc(-c2nc(N3CCOCC3)c3cnn(-c4ccccc4)c3n2)c1` [Compound 104]: the IC50 was 0.244 µM on PI3K (PI3Kα; read-out: PI3Kα IC50); 3.7 µM with prostate line LNCap (Homo sapiens, LNCaP, 72 h); 3.3 µM in the assay on breast line MDA468 (Homo sapiens, 72 h).

`COC(=O)N1CCC(n2ncc3c(N4CCOCC4)nc(-c4ccc(NC(=O)OCCN)cc4)nc32)CC1` [Compound 903, methyl 4-[6-(4-{[(2-aminoethoxy)carbonyl]amino}phenyl)-4-morpholin-4-yl-1H-pyrazolo[3,4-d]pyrimidin-1-yl]piperidine-1-carboxylate]: the IC50 at PI3K (PI3Kα; read-out: PI3Kα IC50) was found to be 0.132 µM; with prostate line LNCap (Homo sapiens, LNCaP, 72 h), 3.2 µM; in the assay on breast line MDA468 (Homo sapiens, 72 h) it was 8 µM.

In the case of `c1cc2cc(-c3nc(N4CCOCC4)c4cnn(C5CCSCC5)c4n3)ccc2[nH]1` [Compound 171], the IC50 amounted to 0.552 µM on PI3K (PI3Kα; read-out: PI3Kα IC50); 0.73 µM with prostate line LNCap (Homo sapiens, 72 h); 2.9 µM in the assay with breast line MDA468 (Homo sapiens, 72 h).

`NNC(=O)Nc1ccc(-c2nc(N3CCOCC3)c3cnn(C4CCN(C(=O)c5cccnc5)CC4)c3n2)cc1` [Compound 551, N-(4-{4-morpholin-4-yl-1-[1-(pyridin-3-ylcarbonyl)piperidin-4-yl]-1H-pyrazolo[3,4-d]pyrimidin-6-yl}phenyl)hydrazinecarboxamide]: the IC50 was 0.398 µM at PI3K (PI3Kα; read-out: PI3Kα IC50); 10.1 µM in the assay with prostate line LNCap (Homo sapiens, LNCaP, 72 h); 14 µM in the assay with breast line MDA468 (Homo sapiens, 72 h).

As to `COC(=O)Nc1ccc(-c2nc(N3CCOCC3)c3cnn(C4CCN(C(=O)c5ccccc5Cl)CC4)c3n2)cc1` [Example 444, methyl (4-{1-[1-(2-chlorobenzoyl)piperidin-4-yl]-4-morpholin-4-yl-1H-pyrazolo[3,4-d]pyrimidin-6-yl}phenyl)carbamate], the 50% inhibitory concentration (IC50) was 0.778 µM at PI3K (PI3Kα; read-out: PI3Kα IC50); 0.25 µM in the assay with prostate line LNCap (Homo sapiens, LNCaP, 72 h); 0.8 µM in the assay with breast line MDA468 (Homo sapiens, 72 h).

As for `C=CC(=O)N1CCC(n2ncc3c(N4CCOCC4)nc(-c4ccc(NC(=O)NC)cc4)nc32)CC1` [Compound 758, 1-{4-[1-(1-acryloylpiperidin-4-yl)-4-morpholin-4-yl-1H-pyrazolo[3,4-d]pyrimidin-6-yl]phenyl}-3-methylurea], the IC50 at PI3K (PI3Kα; read-out: PI3Kα IC50) amounted to 0.098 µM; in the assay with prostate line LNCap (Homo sapiens, LNCaP, 72 h), 0.37 µM; in the assay with breast line MDA468 (Homo sapiens, 72 h) it was 0.3 µM.

Regarding `CNC(=O)Nc1ccc(-c2nc(N3CCOCC3)c3cnn(C4CCN(CCCCO)CC4)c3n2)cc1` [Compound 743, 1-(4-{1-[1-(4-hydroxybutyl)piperidin-4-yl]-4-morpholin-4-yl-1H-pyrazolo[3,4-d]pyrimidin-6-yl}phenyl)-3-methylurea], the IC50 at PI3K (PI3Kα; read-out: PI3Kα IC50) is 0.212 µM; in the assay on prostate line LNCap (Homo sapiens, LNCaP, 72 h), 1.8 µM; with breast line MDA468 (Homo sapiens, 72 h) it was 2.2 µM.

In the case of `CN/C(=N\c1ccc(-c2nc(N3CCOCC3)c3cnn(C4CCN(C(=O)OC(C)C)CC4)c3n2)cc1)SC` [Compound 832, isopropyl 4-[6-(4-{[(1E)-(methylamino)(methylthio)methylene]amino}phenyl)-4-morpholin-4-yl-1H-pyrazolo[3,4-d]pyrimidin-1-yl]piperidine-1-carboxylate], the half-maximal inhibitory concentration (IC50) at PI3K (PI3Kα; read-out: PI3Kα IC50) was 8 µM; with prostate line LNCap (Homo sapiens, LNCaP, 72 h) it was 2 µM; in the assay on breast line MDA468 (Homo sapiens, 72 h), 3.7 µM.

For the molecule `COC(=O)Nc1ccc(-c2nc(N3CCOCC3)c3cn[nH]c3n2)cc1` [Compound 525, methyl [4-(4-morpholin-4-yl-1H-pyrazolo[3,4-d]pyrimidin-6-yl)phenyl]carbamate], the IC50 on PI3K (PI3Kα; read-out: PI3Kα IC50) stood at 0.612 µM; in the assay with prostate line LNCap (Homo sapiens, LNCaP, 72 h) it was 3 µM; with breast line MDA468 (Homo sapiens, 72 h) it was 12 µM.

Consider `C1=C(c2nc(N3CCOCC3)c3cnn(-c4ccccc4)c3n2)CCOC1` [Compound 98], for which the IC50 on PI3K (PI3Kα; read-out: PI3Kα IC50) is 0.754 µM; with prostate line LNCap (Homo sapiens, LNCaP, 72 h), 60 µM; in the assay with breast line MDA468 (Homo sapiens, 72 h), 33 µM.

Consider `CNC(=O)Nc1ccc(-c2nc(N3CCOCC3)c3cnn(C4CCNCC4)c3n2)cc1` [Compound 584, 1-methyl-3-[4-(4-morpholin-4-yl-1-piperidin-4-yl-1H-pyrazolo[3,4-d]pyrimidin-6-yl)phenyl]urea], for which the IC50 at PI3K (PI3Kα; read-out: PI3Kα IC50) stood at 0.022 µM; in the assay with prostate line LNCap (Homo sapiens, LNCaP, 72 h), 0.5 µM; in the assay on breast line MDA468 (Homo sapiens, 72 h), 1.3 µM.

For `CNC(=O)Nc1ccc(-c2nc(N3CCOCC3)c3cnn(C4CCC(=O)CC4)c3n2)cc1` [Example 322, 1-methyl-3-{4-[4-morpholin-4-yl-1-(4-oxocyclohexyl)-1H-pyrazolo[3,4-d]pyrimidin-6-yl]phenyl}urea], the IC50 on PI3K (PI3Kα; read-out: PI3Kα IC50) came to 0.056 µM; in the assay with prostate line LNCap (Homo sapiens, LNCaP, 72 h) it was 0.027 µM; with breast line MDA468 (Homo sapiens, 72 h), 0.2 µM.
